In patent US12486267B2, “Imidazo[1,2-A]pyridine and [1,2,4]triazolo[1,5-A]pyridine derivatives as TLR9 inhibitors for the treatment of fibrosis” (BRISTOL-MYERS SQUIBB COMPANY, priority 2020, dated 2025):

These compounds were tested against T1, human TLR7 (Homo sapiens, UniProt Q9NYK1) (assay: TLR7 inhibition reporter assay (HEK-Blue cells, SEAP reporter)). Details: HEK-Blue cells overexpressing human TLR7; stimulated with gardiquimod 7.5 μM; 22 hour incubation; SEAP readout.
T1 sequence (Q9NYK1 27-1049): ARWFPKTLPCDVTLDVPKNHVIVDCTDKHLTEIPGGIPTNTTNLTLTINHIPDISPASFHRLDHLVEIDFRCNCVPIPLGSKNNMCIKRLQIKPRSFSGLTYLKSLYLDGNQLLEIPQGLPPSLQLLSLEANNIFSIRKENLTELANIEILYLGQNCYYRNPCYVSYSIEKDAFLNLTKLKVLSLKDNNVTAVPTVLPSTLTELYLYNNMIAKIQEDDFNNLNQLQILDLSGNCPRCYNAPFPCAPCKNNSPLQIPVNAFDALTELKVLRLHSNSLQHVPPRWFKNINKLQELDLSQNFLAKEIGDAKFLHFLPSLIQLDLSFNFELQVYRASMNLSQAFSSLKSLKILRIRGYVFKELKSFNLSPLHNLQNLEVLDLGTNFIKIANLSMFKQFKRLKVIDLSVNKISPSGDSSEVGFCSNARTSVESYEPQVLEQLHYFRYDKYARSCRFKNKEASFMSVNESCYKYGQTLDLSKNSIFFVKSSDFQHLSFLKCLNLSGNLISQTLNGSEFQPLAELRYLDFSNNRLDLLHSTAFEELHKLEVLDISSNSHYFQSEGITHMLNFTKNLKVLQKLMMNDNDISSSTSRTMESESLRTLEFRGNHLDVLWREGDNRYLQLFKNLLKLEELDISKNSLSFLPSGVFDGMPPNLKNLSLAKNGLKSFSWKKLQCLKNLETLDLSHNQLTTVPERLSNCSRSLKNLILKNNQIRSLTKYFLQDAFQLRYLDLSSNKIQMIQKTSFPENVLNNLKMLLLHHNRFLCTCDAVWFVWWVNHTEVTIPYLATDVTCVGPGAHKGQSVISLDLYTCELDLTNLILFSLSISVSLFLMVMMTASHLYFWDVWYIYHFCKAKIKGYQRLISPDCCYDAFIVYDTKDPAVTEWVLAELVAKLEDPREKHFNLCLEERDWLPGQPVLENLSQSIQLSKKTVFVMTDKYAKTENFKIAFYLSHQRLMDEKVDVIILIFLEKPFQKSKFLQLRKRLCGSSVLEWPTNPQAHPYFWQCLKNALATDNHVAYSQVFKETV
Type: cell-based
Description: (§1) TLR7/8/9 Inhibition Reporter Assays
(§2) HEK-Blue™-cells (Invivogen) overexpressing human TLR7, TLR8 or TLR9 receptors were used for screening inhibitors of these receptors using an inducible SEAP (secreted embryonic alkaline phosphatase) reporter gene under the control of the […] minimal promoter fused to five NF-κB and AP-1-binding sites. Briefly, cells are seeded into Greiner 384 well plates (15000 cells per well for TLR7, 20,000 for TLR8 and 25,000 for TLR9) and then treated with test compounds in DMSO to yield a final dose response concentration range of 0.05 nM-50 μM. After a 30 minute compound pre-treatment at room temperature, the cells are then stimulated with a TLR7 ligand (gardiquimod at a final concentration of 7.5 μM), TLR8 ligand (R848 at a final concentration of 15.9 μM) or TLR9 ligand (ODN2006 at a final concentration of 5 nM) to activate NF-κB and AP-1 which induce the production of SEAP. After a 22 hour incubation at 37° C., 5% CO2, SEAP levels are determined with the addition of HEK-Blue™ Detection reagent (Invivogen), a cell culture medium that allows for detection of SEAP, according to manufacturer's specifications. The percent inhibition is determined as the % reduction in the HEK-Blue signal present in wells treated with agonist plus DMSO alone compared to wells treated with a known inhibitor.

Row | IC50 [nM] | Structure (SMILES)
1 | 2400 | CC(C)CN1CCC(N2CCC(c3ccn4cc(-c5ccc(S(C)(=O)=O)cc5)nc4c3F)CC2)CC1 [Example 74, 8-fluoro-7-(1′-isobutyl-[1,4′-bipiperidin]-4-yl)-2-(4-(methylsulfonyl)phenyl)imidazo[1,2-a]pyridine]
2 | 1000 | COCCN1CCN(c2ccc(-c3cc(C)c4nc(-c5ccc(OC)c(OC)c5)cn4c3)cc2)CC1 [Example 98, 2-(3,4-dimethoxyphenyl)-6-(4-(4-(2-methoxyethyl)piperazin-1-yl)phenyl)-8-methylimidazo[1,2-a]pyridine]

These compounds were tested against T2, human TLR9 (Homo sapiens, UniProt Q9NR96) (assay: TLR9 inhibition reporter assay (HEK-Blue cells, SEAP reporter)). Details: HEK-Blue cells overexpressing human TLR9; stimulated with ODN2006 5 nM; 22 hour incubation; SEAP readout.
T2 sequence (Q9NR96 26-1032): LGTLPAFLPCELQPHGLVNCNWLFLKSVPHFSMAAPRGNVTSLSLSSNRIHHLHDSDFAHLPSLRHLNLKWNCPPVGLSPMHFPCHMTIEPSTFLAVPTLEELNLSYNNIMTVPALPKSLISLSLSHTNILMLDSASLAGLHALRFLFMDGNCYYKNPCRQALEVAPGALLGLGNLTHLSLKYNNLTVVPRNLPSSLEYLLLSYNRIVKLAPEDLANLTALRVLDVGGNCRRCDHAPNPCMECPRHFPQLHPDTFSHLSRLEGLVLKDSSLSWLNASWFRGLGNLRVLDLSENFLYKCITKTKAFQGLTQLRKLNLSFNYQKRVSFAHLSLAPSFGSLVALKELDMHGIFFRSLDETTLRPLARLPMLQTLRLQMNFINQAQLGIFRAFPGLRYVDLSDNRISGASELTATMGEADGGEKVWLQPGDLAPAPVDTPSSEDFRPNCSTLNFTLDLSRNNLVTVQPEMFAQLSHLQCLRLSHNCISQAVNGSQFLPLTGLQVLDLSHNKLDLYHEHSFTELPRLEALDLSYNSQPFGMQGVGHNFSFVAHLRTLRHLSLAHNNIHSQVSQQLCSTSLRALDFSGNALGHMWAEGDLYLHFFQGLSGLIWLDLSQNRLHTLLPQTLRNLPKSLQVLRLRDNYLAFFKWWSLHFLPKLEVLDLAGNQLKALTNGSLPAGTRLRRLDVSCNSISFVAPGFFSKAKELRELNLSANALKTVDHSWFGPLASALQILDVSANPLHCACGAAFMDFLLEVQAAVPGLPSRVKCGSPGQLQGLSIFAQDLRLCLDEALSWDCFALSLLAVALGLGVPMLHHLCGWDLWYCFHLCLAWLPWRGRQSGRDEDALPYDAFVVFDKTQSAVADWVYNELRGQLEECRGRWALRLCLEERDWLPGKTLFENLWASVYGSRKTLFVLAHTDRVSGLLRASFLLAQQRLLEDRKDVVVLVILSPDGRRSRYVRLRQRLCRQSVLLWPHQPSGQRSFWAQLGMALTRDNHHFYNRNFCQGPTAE
Type: cell-based
Description: as §1, §2

Row | Structure (SMILES) | IC50 [nM]
3 | CC(C)CN1CCC(N2CCC(c3ccn4cc(-c5ccc(S(C)(=O)=O)cc5)nc4c3F)CC2)CC1 [Example 74, 8-fluoro-7-(1′-isobutyl-[1,4′-bipiperidin]-4-yl)-2-(4-(methylsulfonyl)phenyl)imidazo[1,2-a]pyridine] | 55
4 | COCCN1CCN(c2ccc(-c3cc(C)c4nc(-c5ccc(OC)c(OC)c5)cn4c3)cc2)CC1 [Example 98, 2-(3,4-dimethoxyphenyl)-6-(4-(4-(2-methoxyethyl)piperazin-1-yl)phenyl)-8-methylimidazo[1,2-a]pyridine] | 456
5 | COc1ccc(-c2nc3ccc(C4CC5CCC(C4)N5C4CCN(C(C)C)CC4)cn3n2)cc1OC (stereo not shown) [Example 149, 2-(3,4-dimethoxyphenyl)-6-(8-(1-isopropylpiperidin-4-yl)-8-azabicyclo[3.2.1]octan-3-yl)-[1,2,4]triazolo[1,5-a]pyridine] | 217
6 | Cc1cc(C2CCN(C3CCN(C4CCC4)CC3)CC2)cn2cc(-c3ccc(S(C)(=O)=O)cc3)nc12 [Example 91, 6-(1′-cyclobutyl-[1,4′-bipiperidin]-4-yl)-8-methyl-2-(4-(methylsulfonyl)phenyl) imidazo[1,2-a]pyridine] | 19
7 | COc1ccc(-c2cn3cc(C4CC5CCC(C4)N5C4CCN(CC(C)C)CC4)cc(C)c3n2)cc1OC (single isomer, unassigned) [Example 29, 2-(3,4-dimethoxyphenyl)-6-(8-(1-isobutylpiperidin-4-yl)-8-azabicyclo[3.2.1]octan-3-yl)-8-methylimidazo[1,2-a]pyridine] | 10
8 | COc1ccc(-c2cn3cc(C4CC5CCC(C4)N5C4CCN(CC(C)C)CC4)cc(C)c3n2)cc1OC (single isomer, unassigned) [Example 28, 2-(3,4-dimethoxyphenyl)-6-(8-(1-isobutylpiperidin-4-yl)-8-azabicyclo[3.2.1]octan-3-yl)-8-methylimidazo[1,2-a]pyridine] | 7.9
9 | Cc1cc(C2CCN(C3CC4CCC(C3)N4C(C)C)CC2)cn2cc(-c3ccc(S(C)(=O)=O)cc3)nc12 (single isomer, unassigned) [Example 62, 6-(1-(8-isopropyl-8-azabicyclo[3.2.1]octan-3-yl)piperidin-4-yl)-8-methyl-2-(4-(methylsulfonyl)phenyl)imidazo[1,2-a]pyridine] | 98
10 | Cc1cc(C2CCN(C3CC4CCC(C3)N4CC(C)C)CC2)cn2cc(-c3ccc(S(C)(=O)=O)cc3)nc12 (single isomer, unassigned) [Example 85, 6-(1-(8-isobutyl-8-azabicyclo[3.2.1]octan-3-yl)piperidin-4-yl)-8-methyl-2-(4-(methylsulfonyl)phenyl)imidazo[1,2-a]pyridine] | 27
11 | COc1ccc(-c2nc3ccc(C4CC5CCC(C4)N5C4CCN(C5CC5)CC4)cn3n2)cc1OC (stereo not shown) [Example 146, 6-(8-(1-cyclopropylpiperidin-4-yl)-8-azabicyclo[3.2.1]octan-3-yl)-2-(3,4-dimethoxyphenyl)-[1,2,4]triazolo[1,5-a]pyridine] | 769

Results, then the compound that gave them:

Row | IC50 [nM] | Structure (SMILES)
12 | 158 | CS(=O)(=O)c1ccc(-c2cn3cc(C4CCN(C5CCN(C6CC6)CC5)CC4)c(F)cc3n2)cc1 [Example 124, 6-(1′-cyclopropyl-[1,4′-bipiperidin]-4-yl)-7-fluoro-2-(4-(methylsulfonyl)phenyl) imidazo[1,2-a]pyridine]
13 | 1370 | COc1ccc(-c2nc3c(C)cc(-c4ccc(N5CC6CCC(C5)N6C(C)C)cc4)cn3n2)cc1OC [Example 151, 2-(3,4-dimethoxyphenyl)-6-(4-(8-isopropyl-3,8-diazabicyclo[3.2.1]octan-3-yl)phenyl)-8-methyl-[1,2,4]triazolo[1,5-a]pyridine]
14 | 152 | COc1ccc(-c2nc3c(C)cc(C4CCN(C5CCN(C(C)C)CC5)CC4)cn3n2)cc1OC [Example 158, 2-(3,4-dimethoxyphenyl)-6-(1′-isopropyl-[1,4′-bipiperidin]-4-yl)-8-methyl-[1,2,4]triazolo[1,5-a] pyridine]
15 | 7740 | CC1CC(c2ccc(N3CC4CCC(C3)N4C(C)C)cc2)Cn2nc(-c3ccc(S(C)(=O)=O)cc3)nc21 (stereo not shown) [Example 154, 6-(4-(8-isopropyl-3,8-diazabicyclo[3.2.1]octan-3-yl)phenyl)-8-methyl-2-(4-(methylsulfonyl)phenyl)-5,6,7,8-tetrahydro-[1,2,4]triazolo[1,5-a]pyridine]
16 | 20900 | CC1CC(c2ccc(N3CCN(C(C)C)CC3)cc2)Cn2nc(-c3ccc(S(C)(=O)=O)cc3)nc21 (stereo not shown) [Example 150, 6-(4-(4-isopropylpiperazin-1-yl)phenyl)-8-methyl-2-(4-(methylsulfonyl)phenyl)-5,6,7,8-tetrahydro-[1,2,4]triazolo[1,5-a]pyridine]
